# Experiments:
# human SOS1 = human SOS1 (Homo sapiens (Human), UniProt Q07889); assay: Surface Plasmon Resonance (SPR) SOS1 Binding Assay; conditions: biotinylated SOS1 (res. 564-1049), Biacore 8K, 25° C., kinetic or steady state fit, 1:1 binding; read-out: hSOS1 KD
# Procedure: Binding to SOS1 was measured using a SPR assay with purified recombinant human SOS1 substrate (res. 564-1049 with N-terminal Avi tag; purified and biotinylated based on Hillig, et al., Proc Natl Acad Sci USA (2019); 116(7):2551-2560). SPR measurements were performed on a Biacore 8K SPR instrument (GE Healthcare, Sweden). Assays were performed at 25° C. using Series S SA sensor chips pre-coated with streptavidin (GE Healthcare, Cat. BR100531). Biotinylated SOS1 diluted in sample buffer (20 mM Tris HCI, 150 mM NaCl, 1 mM DTT, 0.05% TWEEN 20, 1 mM MgCh, pH 8.0) was captured to one flow cell of the chip to about 3,000 resonance units (RU) using sample buffer supplemented with 5% DMSO as a running buffer. Serial dilutions of the assayed compounds in the running buffer at 100, 50 or 0.5 µM were injected for 60 s at a flow rate of 30 µL/min and association phases were recorded. Dissociation of the samples was monitored for 600 s. Data processing was performed using Biacore Insight Software (Biacore, GE Healthcare). Sensorgrams recorded on a SA flow cell without captured protein were subtracted from sensorgrams recorded on the SOS1 surface. Blank injections of running buffer were used for double referencing and solvent correction was applied to all sample sensorgrams to correct for buffer mismatches. KDS were estimated using a kinetic or steady state, where applicable, fitting model describing a reversible equilibrium with 1:1 binding between SOS1 and the compound.
# [1] = target: SOS1:KRAS (G12C) interaction (Homo sapiens (Human), UniProt Q07889); assay: SOS1 KRas(G12C) FRET Assay; format: binding; conditions: 0.5 nM His10-SOS1 (res. 564-1049), 2.5 nM GST-KRAS G12C (res. 1-169), 2 hrs at RT
# How it was run: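 GST-KRAS G12C (res. 1-169) at 2.5 nM and His10-SOS1 (res. 564-1049) at 0.5 nM, final, in PBS with 0.1% BSA, 5 mM MgCl2, 100 mM KF, 5 mM DTT and 0.5% DMSO. After 2 h at RT, FRET read at 665/615 nm and normalized to DMSO and no-SOS1 controls. IC50 by non-linear regression.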
# Chain of human SOS1 (Q07889 564-1049): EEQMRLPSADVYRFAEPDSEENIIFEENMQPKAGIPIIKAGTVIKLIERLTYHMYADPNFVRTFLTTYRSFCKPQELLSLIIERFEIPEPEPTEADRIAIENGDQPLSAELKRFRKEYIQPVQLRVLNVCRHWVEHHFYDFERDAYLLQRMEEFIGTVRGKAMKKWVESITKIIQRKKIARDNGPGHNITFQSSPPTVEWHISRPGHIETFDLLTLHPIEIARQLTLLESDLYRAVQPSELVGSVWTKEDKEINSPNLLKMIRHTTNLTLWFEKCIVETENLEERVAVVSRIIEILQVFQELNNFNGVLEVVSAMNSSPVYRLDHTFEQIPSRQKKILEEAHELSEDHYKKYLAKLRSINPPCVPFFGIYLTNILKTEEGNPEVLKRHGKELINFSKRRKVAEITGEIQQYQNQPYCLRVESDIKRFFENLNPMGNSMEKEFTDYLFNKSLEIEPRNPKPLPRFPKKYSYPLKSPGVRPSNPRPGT
# Chain of SOS1:KRAS (G12C) interaction (Q07889 564-1049, stated change not applied): as the sequence (Q07889 564-1049) above
smiles,measurement,setting,value
"C[C@@H](NC(=O)c1cn(C2CCC(F)(F)CC2)c(=O)cc1N[C@H]1[C@@H]2CN(C)C[C@@H]21)c1cccc(C(F)F)c1F [Example 123, 1-(4,4-difluorocyclohexyl)-N-((R)-1-(3-(difluoromethyl)-2-fluorophenyl)ethyl)-4-(((1R,5S,6s)-3-methyl-3-azabicyclo[3.1.0]hexan-6-yl)amino)-6-oxo-1,6-dihydropyridine-3-carboxamide]",Kd,human SOS1,15 nM
same,IC50,[1],23.1 nM
"C[C@@H](NC(=O)c1cn(C23CC(F)(C2)C3)c(=O)cc1N[C@H]1CCN(C)C[C@H]1F)c1cccc(C(F)F)c1F [Example 142, N-((R)-1-(3-(difluoromethyl)-2-fluorophenyl)ethyl)-4-(((3R,4S)-3-fluoro-1-methylpiperidin-4-yl)amino)-1-(3-fluorobicyclo[1.1.1]pentan-1-yl)-6-oxo-1,6-dihydropyridine-3-carboxamide]",Kd,human SOS1,4 nM
same,IC50,[1],4.9 nM
"Cc1c([C@@H](C)NC(=O)c2cn(C3(C(F)F)CC3)c(=O)cc2NC2CCN(C)CC2)cccc1C(F)(F)F [Example 50, (R)-1-(1-(difluoromethyl)cyclopropyl)-N-(1-(2-methyl-3-(trifluoromethyl)phenyl)ethyl)-4-((1-methylpiperidin-4-yl)amino)-6-oxo-1,6-dihydropyridine-3-carboxamide]",Kd,human SOS1,8 nM
same,IC50,[1],20.3 nM
"C[C@@H](NC(=O)c1cn([C@@H]2CCOC[C@H]2F)c(=O)cc1NC1CCN(C)CC1)c1cccc(C(F)F)c1F [Example 79, N-((R)-1-(3-(difluoromethyl)-2-fluorophenyl)ethyl)-1-((3S,4R)-3-fluorotetrahydro-2H-pyran-4-yl)-4-((1-methylpiperidin-4-yl)amino)-6-oxo-1,6-dihydropyridine-3-carboxamide]",Kd,human SOS1,2 nM
same,IC50,[1],3.7 nM
"C[C@@H](NC(=O)c1cn([C@@H]2C[C@H]2C2CC2)c(=O)cc1NC1CCN(C)CC1)c1cccc(C(F)F)c1F (single isomer, unassigned) [Example 74]",Kd,human SOS1,2 nM
same,IC50,[1],4.6 nM
"C[C@@H](NC(=O)c1cn([C@H]2CC23CCC3)c(=O)cc1N[C@H]1[C@@H]2CN(C)C[C@@H]21)c1cccc(C(F)F)c1F (single isomer, unassigned) [Example 117]",Kd,human SOS1,6 nM
same,IC50,[1],8.5 nM
"CCC12CC(n3cc(C(=O)N[C@H](C)c4cccc(C(F)F)c4F)c(NC4[C@H]5CN(C)C[C@@H]45)cc3=O)(C1)C2 (stereo partly drawn) [Example 313, N-((R)-1-(3-(difluoromethyl)-2-fluorophenyl)ethyl)-1-(3-ethylbicyclo[1.1.1]pentan-1-yl)-4-(((1R,5S,6s)-3-methyl-3-azabicyclo[3.1.0]hexan-6-yl)amino)-6-oxo-1,6-dihydropyridine-3-carboxamide]",IC50,[1],10.5 nM
"Cc1c([C@@H](C)NC(=O)c2cn(C3CCOCC3)c(=O)cc2NC2CCNCC2)cccc1C(F)(F)F [Example 282, (R)-N-(1-(2-methyl-3-(trifluoromethyl)phenyl)ethyl)-6-oxo-4-(piperidin-4-ylamino)-1-(tetrahydro-2H-pyran-4-yl)-1,6-dihydropyridine-3-carboxamide]",IC50,[1],34.4 nM
"C[C@@H](NC(=O)c1cn(C2(CF)CC2)c(=O)cc1N[C@H]1[C@@H]2CC[C@H]1CN(C)C2)c1cccc(C(F)F)c1F (single isomer, unassigned) [Example 260]",IC50,[1],12.4 nM
"Cc1c([C@@H](C)NC(=O)c2cn(C3CCOCC3)c(=O)cc2N[C@@H]2CC[C@@]23CCCN(C)C3)cccc1C(F)(F)F (single isomer, unassigned) [Example 299]",IC50,[1],51.3 nM
"C[C@@H](NC(=O)c1cn(C2C(F)(F)C23CC3)c(=O)cc1N[C@H]1[C@@H]2CN(C)C[C@@H]21)c1cccc(C(F)F)c1F (stereo partly drawn) [Example 206, N-((R)-1-(3-(difluoromethyl)-2-fluorophenyl)ethyl)-1-(2,2-difluorospiro[2.2]pentan-1-yl)-4-(((1R,5S,6s)-3-methyl-3-azabicyclo[3.1.0]hexan-6-yl)amino)-6-oxo-1,6-dihydropyridine-3-carboxamide]",IC50,[1],137 nM
"COc1ccc([C@H](C)NC(=O)c2cn(C3(C(F)F)CC3)c(=O)cc2NC2CCN(C)CC2)c(F)c1C(F)(F)F (single isomer, unassigned) [Example 166]",IC50,[1],193 nM
"C[C@@H](NC(=O)c1cn(C2(C)CCN(C(=O)C3(F)CC3)C2)c(=O)cc1NC1CCN(C)CC1)c1cccc(C(F)F)c1F (stereo partly drawn) [Example 267, N-((R)-1-(3-(difluoromethyl)-2-fluorophenyl)ethyl)-1-(1-(1-fluorocyclopropane-1-carbonyl)-3-methylpyrrolidin-3-yl)-4-((1-methylpiperidin-4-yl)amino)-6-oxo-1,6-dihydropyridine-3-carboxamide]",IC50,[1],2.44 nM
"C[C@@H](NC(=O)c1cn(C2(C)CN(C(=O)C3CC3)C2)c(=O)cc1NC1CCN(C)CC1)c1cccc(C(F)F)c1F [Example 78, (R)-1-(1-(cyclopropanecarbonyl)-3-methylazetidin-3-yl)-N-(1-(3-(difluoromethyl)-2-fluorophenyl)ethyl)-4-((1-methylpiperidin-4-yl)amino)-6-oxo-1,6-dihydropyridine-3-carboxamide]",IC50,[1],0.9 nM
"C[C@@H](NC(=O)c1cn(C23CC(C2)C3)c(=O)cc1N[C@H]1[C@@H]2CN(C)C[C@@H]21)c1cccc(C#N)c1F [Example 179, 1-(bicyclo[1.1.1]pentan-1-yl)-N-((R)-1-(3-cyano-2-fluorophenyl)ethyl)-4-(((1R,5S,6s)-3-methyl-3-azabicyclo[3.1.0]hexan-6-yl)amino)-6-oxo-1,6-dihydropyridine-3-carboxamide]",IC50,[1],70.7 nM
"C[C@@H](NC(=O)c1cn(C2(C(F)F)CC2)c(=O)cc1N[C@H]1CCNC2(CC2)C1)c1cccc(C(F)F)c1F (single isomer, unassigned) [Example 277]",IC50,[1],9.46 nM
"Cc1c([C@@H](C)NC(=O)c2cn(C3CCOCC3)c(=O)cc2N[C@H]2CCCCN(C)C2)cccc1C(F)(F)F [Example 35, N-((R)-1-(2-methyl-3-(trifluoromethyl)phenyl)ethyl)-4-(((S)-1-methylazepan-3-yl)amino)-6-oxo-1-(tetrahydro-2H-pyran-4-yl)-1,6-dihydropyridine-3-carboxamide]",IC50,[1],44 nM
"Cc1c([C@@H](C)NC(=O)c2cn(C3CCOCC3)c(=O)cc2NC2CCN(C)CC2)cccc1C(F)(F)F [Example 1, (R)-N-(I-(2-methyl-3-(trifluoromethyl)phenyl)ethyl)-4-((I-methylpiperidin-4-yl)amino)-6-oxo-1-(tetrahydro-2H-pyran-4-yl)-1,6-dihydropyridine-3-carboxamide]",IC50,[1],27.4 nM
"C[C@@H](NC(=O)c1cn([C@H]2CC2(F)F)c(=O)cc1N[C@H]1[C@@H]2CN(C)C[C@@H]21)c1cccc(C(C)(F)F)c1F (single isomer, unassigned) [Example 202]",IC50,[1],19.5 nM
"C[C@@H](NC(=O)c1cn([C@@H]2CCOC[C@H]2F)c(=O)cc1N[C@H]1[C@@H]2C[C@H]1CN(C)C2)c1cccc(C(F)F)c1F [Example 243, N-((R)-1-(3-(difluoromethyl)-2-fluorophenyl)ethyl)-1-((3S,4R)-3-fluorotetrahydro-2H-pyran-4-yl)-4-(((1R,5Sx,6r)-3-methyl-3-azabicyclo[3.1.1]heptan-6-yl)amino)-6-oxo-1,6-dihydropyridine-3-carboxamide]",IC50,[1],6.3 nM
"Cc1c([C@@H](C)NC(=O)c2cn(C3CCOCC3)c(=O)cc2NC2CCN(C3CC3)CC2)cccc1C(F)(F)F [Example 284, (R)-4-((1-cyclopropylpiperidin-4-yl)amino)-N-(1-(2-methyl-3-(trifluoromethyl)phenyl)ethyl)-6-oxo-1-(tetrahydro-2H-pyran-4-yl)-1,6-dihydropyridine-3-carboxamide]",IC50,[1],23 nM
"C[C@@H](NC(=O)c1cn([C@@]2(C)CCN(C(=O)C3(F)CC3)C2)c(=O)cc1NC1CCN(C)CC1)c1cccc(C(F)F)c1F [Example 268, N-((R)-1-(3-(difluoromethyl)-2-fluorophenyl)ethyl)-1x-((S)-1-(1-fluorocyclopropane-1-carbonyl)-3-methylpyrrolidin-3-yl)-4-((1-methylpiperidin-4-yl)amino)-6-oxo-1,6-dihydropyridine-3-carboxamide]",IC50,[1],32.8 nM
C[C@@H](NC(=O)c1cn(C23COC(C2)C3)c(=O)cc1N[C@H]1[C@@H]2CN(C)C[C@@H]21)c1cccc(C(F)F)c1F [Example 192],IC50,[1],12.9 nM

# Reference: patent US20230348424A1, “HETEROCYCLIC COMPOUNDS AND METHODS OF USE” (Schrödinger, Inc., priority 2022, published 2023)
